Measured values as given in patent US20240043427A1 (Gilead Sciences, Inc., priority 2020, published 2024).

Assays:
CD73 [1] = target: T1, CD73 (Homo sapiens (Human), UniProt P21589); assay: MDA-MB-231 Cell Based CD73 Activity Assay (DMEM); details: MDA-MB-231-GFP cells, DMEM medium with 10% human plasma, 200 uM AMP
CD73 [2] = target: T1, CD73; type: biochemical; details: 1 mM NaH2PO4 in enzyme buffer, CD73 0.3 nM, AMP 15 uM

T1 sequence (P21589 27-574): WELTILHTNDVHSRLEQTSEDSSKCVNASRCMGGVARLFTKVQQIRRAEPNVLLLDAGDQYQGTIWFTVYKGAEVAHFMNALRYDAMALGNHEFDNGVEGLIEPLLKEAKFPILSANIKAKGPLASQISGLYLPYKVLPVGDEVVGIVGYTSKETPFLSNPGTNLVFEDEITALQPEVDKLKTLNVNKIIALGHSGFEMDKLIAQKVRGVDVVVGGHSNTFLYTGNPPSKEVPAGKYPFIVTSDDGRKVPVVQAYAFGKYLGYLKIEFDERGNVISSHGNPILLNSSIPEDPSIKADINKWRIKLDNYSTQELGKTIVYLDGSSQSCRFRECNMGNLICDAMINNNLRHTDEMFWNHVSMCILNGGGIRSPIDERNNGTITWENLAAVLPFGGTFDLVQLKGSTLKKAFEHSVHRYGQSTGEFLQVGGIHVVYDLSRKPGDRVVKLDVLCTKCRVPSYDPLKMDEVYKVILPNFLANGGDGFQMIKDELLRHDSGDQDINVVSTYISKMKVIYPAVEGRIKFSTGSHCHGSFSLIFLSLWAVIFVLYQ

Compound | EC50 (CD73 [1]) [nM] | IC50 (CD73 [2]) [nM]
N#Cc1ccc([C@H]2C[C@@H]2c2cc(-c3c[nH]c(=O)[nH]c3=O)nn3ccnc23)cc1 [Example 465, 4-((1S,2S)-2-(6-(2,4-dioxo-1,2,3,4-tetrahydropyrimidin-5-yl)imidazo[1,2-b]pyridazin-8-yl)cyclopropyl)benzonitrile] | 3.24 | 0.86
O=c1[nH]cc(-c2cc([C@H]3C[C@@H]3c3ccc4cnc(C(F)(F)F)cc4c3)c3nccn3n2)c(=O)[nH]1 (racemic) [Example 138, 5-(8-((1S,2S)-2-(3-(trifluoromethyl)isoquinolin-6-yl)cyclopropyl)imidazo[1,2-b]pyridazin-6-yl)pyrimidine-2,4(1H,3H)-dione and 5-(8-((1R,2R)-2-(3-(trifluoromethyl)isoquinolin-6-yl)cyclopropyl)imidazo[1,2-b]pyridazin-6-yl)pyrimidine-2,4(1H,3H)-dione] | 0.64 | 0.95
O=c1[nH]cc(-c2cc([C@H]3C[C@@H]3c3ccc4cnn(CC(F)(F)F)c4n3)c3nccn3n2)c(=O)[nH]1 (racemic) [Example 601, 5-(8-((1S,2S)-2-(1-(2,2,2-trifluoroethyl)-1H-pyrazolo[3,4-b]pyridin-6-yl)cyclopropyl)imidazo[1,2-b]pyridazin-6-yl)pyrimidine-2,4(1H,3H)-dione] | 0.17 | 1.16
CC(C)NC(=O)O[C@H]1CN(c2cc(-c3c[nH]c(=O)[nH]c3=O)nn3ccnc23)CC1(F)F [Example 533, (S)-1-(6-(2,4-dioxo-1,2,3,4-tetrahydropyrimidin-5-yl)imidazo[1,2-b]pyridazin-8-yl)-4,4-difluoropyrrolidin-3-yl isopropylcarbamate] | 0.17 | 0.78
C[C@@H]1CN(c2cc(-c3c[nH]c(=O)[nH]c3=O)nn3c(Cl)cnc23)CC1(F)F [Example 521, (R)-5-(3-chloro-8-(3,3-difluoro-4-methylpyrrolidin-1-yl)imidazo[1,2-b]pyridazin-6-yl)pyrimidine-2,4(1H,3H)-dione] | 223 | 33.3
CCNC(=O)OC1CN(c2cc(-c3c[nH]c(=O)[nH]c3=O)nn3ccnc23)CC1(F)F (stereo not drawn) [Example 526, 1-(6-(2,4-dioxo-1,2,3,4-tetrahydropyrimidin-5-yl)imidazo[1,2-b]pyridazin-8-yl)-4,4-difluoropyrrolidin-3-yl ethylcarbamate] | 1.13 | 1.32
O=c1[nH]cc(-c2cc([C@H]3C[C@@H]3c3ccc4c(F)nn(CC(F)(F)F)c4c3)c3ncc(F)n3n2)c(=O)[nH]1 [Example 697, 5-(3-fluoro-8-((1S,2S)-2-(3-fluoro-1-(2,2,2-trifluoroethyl)-1H-indazol-6-yl)cyclopropyl)imidazo[1,2-b]pyridazin-6-yl)pyrimidine-2,4(1H,3H)-dione] | 0.27 | 0.65
O=c1[nH]cc(-c2cc([C@H]3C[C@@H]3c3ccc4cnn(CC(F)(F)F)c4c3)c3nccn3n2)c(=O)[nH]1 [Example 318, 5-(8-((1S,2S)-2-(1-(2,2,2-trifluoroethyl)-1H-indazol-6-yl)cyclopropyl)imidazo[1,2-b]pyridazin-6-yl)pyrimidine-2,4(1H,3H)-dione] | 0.06 | 0.43
O=c1[nH]cc(-c2cc([C@H]3C[C@@H]3c3ccc4ccn(CC(F)(F)F)c4n3)c3nccn3n2)c(=O)[nH]1 [Example 704, 5-(8-((1S,2S)-2-(1-(2,2,2-trifluoroethyl)-1H-pyrrolo[2,3-b]pyridin-6-yl)cyclopropyl)imidazo[1,2-b]pyridazin-6-yl)pyrimidine-2,4(1H,3H)-dione] | 0.36 | 0.73
O=C1CCN(c2cc(-c3c[nH]c(=O)[nH]c3=O)nn3ccnc23)N1 [Example 480, 5-(8-(3-oxopyrazolidin-1-yl)imidazo[1,2-b]pyridazin-6-yl)pyrimidine-2,4(1H,3H)-dione] | 1920 | > 250
O=C1N(CCC(F)(F)F)c2cc([C@H]3C[C@@H]3c3cc(-c4c[nH]c(=O)[nH]c4=O)nn4ccnc34)ccc2C12CC2 (racemic) [Example 746, 5-(8-((1S,2S)-2-(2′-oxo-1′-(3,3,3-trifluoropropyl)spiro[cyclopropane-1,3′-indolin]-6′-yl)cyclopropyl)imidazo[1,2-b]pyridazin-6-yl)pyrimidine-2,4(1H,3H)-dione] | 0.84 | 2.37
CC1(C)CN(c2cc(-c3c[nH]c(=O)[nH]c3=O)nn3c(Cl)cnc23)CC1(F)F [Example 522, 5-(3-chloro-8-(3,3-difluoro-4,4-dimethylpyrrolidin-1-yl)imidazo[1,2-b]pyridazin-6-yl)pyrimidine-2,4(1H,3H)-dione] | 23.6 | 1.26
O=c1[nH]cc(-c2cc(N3C[C@H](Oc4ccc(OC(F)(F)F)cn4)C(F)(F)C3)c3nccn3n2)c(=O)[nH]1 [Example 335, (S)-5-(8-(3,3-difluoro-4-((5-(trifluoromethoxy)pyridin-2-yl)oxy)pyrrolidin-1-yl)imidazo[1,2-b]pyridazin-6-yl)pyrimidine-2,4(1H,3H)-dione] | 6.77 | 2.8
O=c1[nH]cc(-c2cc([C@H]3C[C@@H]3c3ncc4cnn(CC(F)(F)F)c4c3F)c3ncc(F)n3n2)c(=O)[nH]1 (racemic) [Example 621, 5-(3-fluoro-8-((1S,2S)-2-(7-fluoro-1-(2,2,2-trifluoroethyl)-1H-pyrazolo[4,3-c]pyridin-6-yl)cyclopropyl)imidazo[1,2-b]pyridazin-6-yl)pyrimidine-2,4(1H,3H)-dione] | 0.32 | 1.32
O=c1[nH]cc(-c2cc(NCCc3ccccc3F)c3nccn3n2)c(=O)[nH]1 [Example 493, 5-(8-((2-fluorophenethyl)amino)imidazo[1,2-b]pyridazin-6-yl)pyrimidine-2,4(1H,3H)-dione] | 837 | 194
O=c1[nH]cc(-c2cc(N3CCC4CC43)c3nccn3n2)c(=O)[nH]1 (stereo not drawn) [Example 254, 5-(8-(2-azabicyclo[3.1.0]hexan-2-yl)imidazo[1,2-b]pyridazin-6-yl)pyrimidine-2,4(1H,3H)-dione] | 136 | 26.6
O=c1[nH]cc(-c2cc([C@H]3C[C@@H]3c3ccc4c(F)nn(CC(F)(F)F)c4c3)c3ncc(Cl)n3n2)c(=O)[nH]1 [Example 721, 5-[3-chloro-8-[(1S,2S)-2-[3-fluoro-1-(2,2,2-trifluoroethyl)indazol-6-yl]cyclopropyl]imidazo[1,2-b]pyridazin-6-yl]-1H-pyrimidine-2,4-dione] | 0.32 | 0.77
O=c1[nH]cc(-c2cc(N3CC[C@H](C(F)F)C3)c3nccn3n2)c(=O)[nH]1 [Example 229, (S)-5-(8-(3-(difluoromethyl)pyrrolidin-1-yl)imidazo[1,2-b]pyridazin-6-yl)pyrimidine-2,4(1H,3H)-dione] | 175 | 56.9
COc1ccc(C2CN(c3cc(-c4c[nH]c(=O)[nH]c4=O)nn4ccnc34)CC2(F)F)cc1 (stereo not drawn) [Example 194, 5-[8-[3,3-difluoro-4-(4-methoxyphenyl)pyrrolidin-1-yl]imidazo[1,2-b]pyridazin-6-yl]-1H-pyrimidine-2,4-dione] | 469 | 3.32
COC(=O)c1ccc(C2CCN(c3cc(-c4c[nH]c(=O)[nH]c4=O)nn4ccnc34)C2)cc1 (stereo not drawn) [Example 265, Methyl 4-(1-(6-(2,4-dioxo-1,2,3,4-tetrahydropyrimidin-5-yl)imidazo[1,2-b]pyridazin-8-yl)pyrrolidin-3-yl)benzoate] | 77.9 | 3.22
O=c1[nH]cc(-c2cc(N3CC(Oc4ccc(C(F)(F)F)cn4)C4(CC4)C3)c3nccn3n2)c(=O)[nH]1 (stereo not drawn) [Example 345, 5-[8-[7-[[5-(trifluoromethyl)-2-pyridyl]oxy]-5-azaspiro[2.4]heptan-5-yl]imidazo[1,2-b]pyridazin-6-yl]-1H-pyrimidine-2,4-dione] | 98 | 10.2
O=c1[nH]cc(-c2cc([C@H]3C[C@@H]3c3ccc4ncn(CC(F)(F)F)c4c3)c3ncc(F)n3n2)c(=O)[nH]1 [Example 323, 5-(3-fluoro-8-((1S,2S)-2-(1-(2,2,2-trifluoroethyl)-1H-benzo[d]imidazol-6-yl)cyclopropyl)imidazo[1,2-b]pyridazin-6-yl)pyrimidine-2,4(1H,3H)-dione] | 0.06 | 0.51
N#Cc1ccc([C@H]2C[C@@H]2c2cc(-c3c[nH]c(=O)[nH]c3=O)nn3ccnc23)cc1Cl [Example 566, 2-chloro-4-((1S,2S)-2-(6-(2,4-dioxo-1,2,3,4-tetrahydropyrimidin-5-yl)imidazo[1,2-b]pyridazin-8-yl)cyclopropyl)benzonitrile] | 4.46 | 0.78
O=c1[nH]cc(-c2cc([C@H]3C[C@@H]3c3ccc4c(F)nn(CC(F)(F)F)c4c3)c3nccn3n2)c(=O)[nH]1 [Example 393, 5-(8-((1S,2S)-2-(3-fluoro-1-(2,2,2-trifluoroethyl)-1H-indazol-6-yl)cyclopropyl)imidazo[1,2-b]pyridazin-6-yl)pyrimidine-2,4(1H,3H)-dione] | 0.16 | 0.74
CC(C)[C@@H]1CCN(c2cc(-c3c[nH]c(=O)[nH]c3=O)nn3ccnc23)C1 [Example 174, (S)-5-(8-(3-isopropylpyrrolidin-1-yl)imidazo[1,2-b]pyridazin-6-yl)pyrimidine-2,4(1H,3H)-dione] | 214 | 69
CC(=O)N1CC2(C1)CN(c1cc(-c3c[nH]c(=O)[nH]c3=O)nn3ccnc13)CC2(F)F [Example 503, 5-(8-(2-acetyl-8,8-difluoro-2,6-diazaspiro[3.4]octan-6-yl)imidazo[1,2-b]pyridazin-6-yl)pyrimidine-2,4(1H,3H)-dione] | 5.47 | 5.22
CC(F)(F)CN1C(=O)C2(CC2)c2ccc([C@H]3C[C@@H]3c3cc(-c4c[nH]c(=O)[nH]c4=O)nn4ccnc34)cc21 (racemic) [Example 733, 5-(8-((1S,2S)-2-(1′-(2,2-difluoropropyl)-2′-oxospiro[cyclopropane-1,3′-indolin]-6′-yl)cyclopropyl)imidazo[1,2-b]pyridazin-6-yl)pyrimidine-2,4(1H,3H)-dione] | 0.11 | 2.72
